Assay results: the supplement of paper PMC10307832

Columns and labels:
Experiment in all cases: relative viability (nuclei count vs DMSO), 5 days (fraction); higher = more cells survive
NCI-H520 = system: NCI-H520
Summary of the method: (§1)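 Lung cancer cell lines were pin-tool dosed in 1536-well plates on the day after seeding, with either a lone drug or a fixed anchor-drug dose plus five library-drug doses (not always all listed) in √10 steps. Nuclei were counted on 4× images after 5 days. Relative viability is the ratio of treated-well to vehicle-well nuclei counts, with each value a median of duplicate plates.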

NCI-H2405 = system: NCI-H2405
Summary of the method: as §1

NCI-H1650 = system: NCI-H1650
Summary of the method: as §1

LK-2 = system: LK-2
Summary of the method: as §1

RERF-LC-KJ = system: RERF-LC-KJ
Summary of the method: as §1

NCI-H2228 = system: NCI-H2228
Summary of the method: as §1

CAL-12T = system: CAL-12T
Summary of the method: as §1

H3255 = system: H3255
Summary of the method: as §1

HCC-15 = system: HCC-15
Summary of the method: as §1

HCC-827 = system: HCC-827
Summary of the method: as §1

NCI-H661 = system: NCI-H661
Summary of the method: as §1

NCI-H322M = system: NCI-H322M
Summary of the method: as §1

PC-14 = system: PC-14
Summary of the method: as §1

NCI-H1437 = system: NCI-H1437
Summary of the method: as §1

NCI-H2342 = system: NCI-H2342
Summary of the method: as §1

COR-L23 = system: COR-L23
Summary of the method: as §1

SW 1573 = system: SW 1573
Summary of the method: as §1

EKVX = system: EKVX
Summary of the method: as §1

NCI-H1355 = system: NCI-H1355
Summary of the method: as §1

PC-3 [JPC-3] = system: PC-3 [JPC-3]
Summary of the method: as §1

NCI-H1734 = system: NCI-H1734
Summary of the method: as §1

## NC(=O)Nc1cc(-c2cccc(F)c2)sc1C(=O)N[C@H]1CCCNC1 [AZD7762] + CC(=O)Nc1cccc(-n2c(=O)n(C3CC3)c(=O)c3c(Nc4ccc(I)cc4F)n(C)c(=O)c(C)c32)c1 [Trametinib] (partner 0.02 µM)
NCI-H520; first compound 0.01 µM
  relative viability: 0.713
NCI-H520; first compound 0.03162 µM
  relative viability: 0.702
NCI-H520; first compound 0.1 µM
  relative viability: 0.653
NCI-H520; first compound 0.3162 µM
  relative viability: 0.484
NCI-H520; first compound 1 µM
  relative viability: 0.194
NCI-H2405; first compound 0.01 µM
  relative viability: 0.744
NCI-H2405; first compound 0.03162 µM
  relative viability: 0.57
NCI-H2405; first compound 0.1 µM
  relative viability: 0.557
NCI-H2405; first compound 0.3162 µM
  relative viability: 0.631
NCI-H2405; first compound 1 µM
  relative viability: 0.347
NCI-H1650; first compound 0.01 µM
  relative viability: 0.65
NCI-H1650; first compound 0.03162 µM
  relative viability: 0.659
NCI-H1650; first compound 0.1 µM
  relative viability: 0.631
NCI-H1650; first compound 0.3162 µM
  relative viability: 0.532
NCI-H1650; first compound 1 µM
  relative viability: 0.209
LK-2; first compound 0.01 µM
  relative viability: 0.794
LK-2; first compound 0.03162 µM
  relative viability: 0.552
LK-2; first compound 0.1 µM
  relative viability: 0.845
LK-2; first compound 0.3162 µM
  relative viability: 0.617
LK-2; first compound 1 µM
  relative viability: 0.562
RERF-LC-KJ; first compound 0.01 µM
  relative viability: 0.878
RERF-LC-KJ; first compound 0.03162 µM
  relative viability: 0.888
RERF-LC-KJ; first compound 0.1 µM
  relative viability: 0.996
RERF-LC-KJ; first compound 0.3162 µM
  relative viability: 0.874
RERF-LC-KJ; first compound 1 µM
  relative viability: 0.693
NCI-H2228; first compound 0.01 µM
  relative viability: 0.483
NCI-H2228; first compound 0.03162 µM
  relative viability: 0.668
NCI-H2228; first compound 0.1 µM
  relative viability: 0.461
NCI-H2228; first compound 0.3162 µM
  relative viability: 0.37
NCI-H2228; first compound 1 µM
  relative viability: 0.187
CAL-12T; first compound 0.01 µM
  relative viability: 0.391
CAL-12T; first compound 0.03162 µM
  relative viability: 0.402
CAL-12T; first compound 0.1 µM
  relative viability: 0.377
CAL-12T; first compound 0.3162 µM
  relative viability: 0.325
CAL-12T; first compound 1 µM
  relative viability: 0.217
H3255; first compound 0.01 µM
  relative viability: 0.71
H3255; first compound 0.03162 µM
  relative viability: 0.72
H3255; first compound 0.1 µM
  relative viability: 0.698
H3255; first compound 0.3162 µM
  relative viability: 0.618
H3255; first compound 1 µM
  relative viability: 0.682
HCC-15; first compound 0.01 µM
  relative viability: 0.407
HCC-15; first compound 0.03162 µM
  relative viability: 0.393
HCC-15; first compound 0.1 µM
  relative viability: 0.413
HCC-15; first compound 0.3162 µM
  relative viability: 0.351
HCC-15; first compound 1 µM
  relative viability: 0.443
HCC-827; first compound 0.01 µM
  relative viability: 0.577
HCC-827; first compound 0.03162 µM
  relative viability: 0.534
HCC-827; first compound 0.1 µM
  relative viability: 0.561
HCC-827; first compound 0.3162 µM
  relative viability: 0.575
HCC-827; first compound 1 µM
  relative viability: 0.376
NCI-H661; first compound 0.01 µM
  relative viability: 0.662
NCI-H661; first compound 0.03162 µM
  relative viability: 0.569
NCI-H661; first compound 0.1 µM
  relative viability: 0.577
NCI-H661; first compound 0.3162 µM
  relative viability: 0.599
NCI-H661; first compound 1 µM
  relative viability: 0.369
NCI-H322M; first compound 0.01 µM
  relative viability: 0.548
NCI-H322M; first compound 0.03162 µM
  relative viability: 0.583
NCI-H322M; first compound 0.1 µM
  relative viability: 0.526
NCI-H322M; first compound 0.3162 µM
  relative viability: 0.58
NCI-H322M; first compound 1 µM
  relative viability: 0.369
PC-14; first compound 0.01 µM
  relative viability: 0.802
PC-14; first compound 0.03162 µM
  relative viability: 0.832
PC-14; first compound 0.1 µM
  relative viability: 0.659
PC-14; first compound 0.3162 µM
  relative viability: 0.236
PC-14; first compound 1 µM
  relative viability: 0.0675
NCI-H1437; first compound 0.01 µM
  relative viability: 0.561
NCI-H1437; first compound 0.03162 µM
  relative viability: 0.53
NCI-H1437; first compound 0.1 µM
  relative viability: 0.549
NCI-H1437; first compound 0.3162 µM
  relative viability: 0.662
NCI-H1437; first compound 1 µM
  relative viability: 0.494
NCI-H2342; first compound 0.01 µM
  relative viability: 0.861
NCI-H2342; first compound 0.03162 µM
  relative viability: 0.756
NCI-H2342; first compound 0.1 µM
  relative viability: 0.828
NCI-H2342; first compound 0.3162 µM
  relative viability: 0.863
NCI-H2342; first compound 1 µM
  relative viability: 0.97
COR-L23; first compound 0.01 µM
  relative viability: 0.702
COR-L23; first compound 0.03162 µM
  relative viability: 0.623
COR-L23; first compound 0.1 µM
  relative viability: 0.518
COR-L23; first compound 0.3162 µM
  relative viability: 0.319
COR-L23; first compound 1 µM
  relative viability: 0.119
SW 1573; first compound 0.01 µM
  relative viability: 0.741
SW 1573; first compound 0.03162 µM
  relative viability: 0.502
SW 1573; first compound 0.1 µM
  relative viability: 0.584
SW 1573; first compound 0.3162 µM
  relative viability: 0.583
SW 1573; first compound 1 µM
  relative viability: 0.342
EKVX; first compound 0.01 µM
  relative viability: 0.345
EKVX; first compound 0.03162 µM
  relative viability: 0.502
EKVX; first compound 0.1 µM
  relative viability: 0.371
EKVX; first compound 0.3162 µM
  relative viability: 0.314
EKVX; first compound 1 µM
  relative viability: 0.279
NCI-H1355; first compound 0.01 µM
  relative viability: 0.406
NCI-H1355; first compound 0.03162 µM
  relative viability: 0.466
NCI-H1355; first compound 0.1 µM
  relative viability: 0.368
NCI-H1355; first compound 0.3162 µM
  relative viability: 0.441
NCI-H1355; first compound 1 µM
  relative viability: 0.522
PC-3 [JPC-3]; first compound 0.01 µM
  relative viability: 0.699
PC-3 [JPC-3]; first compound 0.03162 µM
  relative viability: 0.722
PC-3 [JPC-3]; first compound 0.1 µM
  relative viability: 0.69
PC-3 [JPC-3]; first compound 0.3162 µM
  relative viability: 0.662
PC-3 [JPC-3]; first compound 1 µM
  relative viability: 0.515
NCI-H1734; first compound 0.01 µM
  relative viability: 0.761
NCI-H1734; first compound 0.03162 µM
  relative viability: 0.683
NCI-H1734; first compound 0.1 µM
  relative viability: 0.812
NCI-H1734; first compound 0.3162 µM
  relative viability: 0.641
NCI-H1734; first compound 1 µM
  relative viability: 0.562
